We go through 22 compounds from patent US20250122173A1, “MODULATORS OF RHO-ASSOCIATED PROTEIN KINASE” (Redx Pharma Limited, priority 2022, published 2025).

For one experiment, the target named is T1, ROCK2 (Homo sapiens, UniProt O75116).
T1 construct: N-terminal 6His-tagged ROCK2 catalytic domain 11-552; 6His (N); purchased Dundee University, UK; host or cells: baculovirus expression system
Briefly: ROCK2 inhibition assay (ADP-Glo kinase assay, called ROCK2 binding activity). It is filed as biochemical. As to conditions: 20 μM ATP, 1 hour pre-incubation, read-out: ROCK 2 (IC50 category). As for the experimental part: ROCK2 Binding Activity: Assay for ROCK2 inhibition was performed using the protein construct N-terminal 6His-tagged ROCK2 catalytic domain 11-552 (Dundee University, UK). Protein was purified from a baculovirus expression system. Long S6 peptide ([…]) was used as substrate. Kinase reactions were carried out in 15 μl volume in a 96-well plate (black, half area) using 1.25 nM constitutively active ROCK2 kinase, 100 μM long S6 peptide, 20 μM ATP and test compound in DMSO (or DMSO only for controls). The final concentration of DMSO was 1%. Assay buffer was 50 mM HEPES pH 7.5 supplemented with 0.2 mM EDTA, 10 mM magnesium acetate, 0.01% Tween-20, 1 mM DTT and 0.01% BSA. Test compounds were pre-incubated with ROCK2 kinase for 1 hour before addition of ATP and long S6 peptide. After incubation for a further 1 hour, the amount of ADP produced was measured using ADP-Glo Kinase Assay (Promega) as per manufacturer's instructions. The luminescence was measured on a PHERAstar FS (BMG Labtech). The concentration of test compound required to inhibit ADP production by 50% (the IC50) was calculated using a four-parameter logistic function with software by Dotmatics. […] The category “+” refers to compounds with a ROCK2 or ROCK1 IC50 value of >10 μM. The category “++” refers to compounds with a ROCK2 or ROCK1 IC50 value of 10 to 3 μM. The category “+++” refers to compounds with a ROCK1 or ROCK2 IC50 value of 3 to 0.3 μM. The category “++++” refers to compounds with a ROCK1 or ROCK2 IC50 value of <0.3 μM.
For orientation: In ADP-Glo the light output rises with the ADP produced.

Another experiment concerns the target ROCK1 (Homo sapiens, UniProt Q13464). Briefly: ROCK1 inhibition assay (ROCK1 binding activity, as determined by the assay described for ROCK2). The format is biochemical. The following applies: read-out: ROCK 1 (IC50 category). On the procedure:
Assay for ROCK2 inhibition was performed using the protein construct N-terminal 6His-tagged ROCK2 catalytic domain 11-552 (Dundee University, UK). Protein was purified from a baculovirus expression system. Long S6 peptide ([…]) was used as substrate. Kinase reactions were carried out in 15 μl volume in a 96-well plate (black, half area) using 1.25 nM constitutively active ROCK2 kinase, 100 μM long S6 peptide, 20 μM ATP and test compound in DMSO (or DMSO only for controls). The final concentration of DMSO was 1%. Assay buffer was 50 mM HEPES pH 7.5 supplemented with 0.2 mM EDTA, 10 mM magnesium acetate, 0.01% Tween-20, 1 mM DTT and 0.01% BSA. Test compounds were pre-incubated with ROCK2 kinase for 1 hour before addition of ATP and long S6 peptide. After incubation for a further 1 hour, the amount of ADP produced was measured using ADP-Glo Kinase Assay (Promega) as per manufacturer's instructions. The luminescence was measured on a PHERAstar FS (BMG Labtech). The concentration of test compound required to inhibit ADP production by 50% (the IC50) was calculated using a four-parameter logistic function with software by Dotmatics. […] The category “+” refers to compounds with a ROCK2 or ROCK1 IC50 value of >10 μM. The category “++” refers to compounds with a ROCK2 or ROCK1 IC50 value of 10 to 3 μM. The category “+++” refers to compounds with a ROCK1 or ROCK2 IC50 value of 3 to 0.3 μM. The category “++++” refers to compounds with a ROCK1 or ROCK2 IC50 value of <0.3 μM.

T1 sequence (O75116 11-552): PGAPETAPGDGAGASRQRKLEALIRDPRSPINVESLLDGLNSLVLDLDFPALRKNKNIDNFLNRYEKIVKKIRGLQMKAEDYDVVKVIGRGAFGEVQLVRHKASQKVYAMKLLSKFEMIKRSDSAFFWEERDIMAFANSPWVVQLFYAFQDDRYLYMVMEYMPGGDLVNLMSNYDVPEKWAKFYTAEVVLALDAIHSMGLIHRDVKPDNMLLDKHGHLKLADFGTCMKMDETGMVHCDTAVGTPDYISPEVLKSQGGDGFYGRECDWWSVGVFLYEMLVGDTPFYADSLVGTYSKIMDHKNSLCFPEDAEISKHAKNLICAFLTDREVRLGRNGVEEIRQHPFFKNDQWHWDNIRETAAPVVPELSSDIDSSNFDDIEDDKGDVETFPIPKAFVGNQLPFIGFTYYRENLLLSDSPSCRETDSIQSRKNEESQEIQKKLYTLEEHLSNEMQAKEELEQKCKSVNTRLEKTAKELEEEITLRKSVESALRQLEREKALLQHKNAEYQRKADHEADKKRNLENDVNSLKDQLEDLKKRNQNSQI
Chain of ROCK1 (Q13464 whole entry, the tested form may be a part): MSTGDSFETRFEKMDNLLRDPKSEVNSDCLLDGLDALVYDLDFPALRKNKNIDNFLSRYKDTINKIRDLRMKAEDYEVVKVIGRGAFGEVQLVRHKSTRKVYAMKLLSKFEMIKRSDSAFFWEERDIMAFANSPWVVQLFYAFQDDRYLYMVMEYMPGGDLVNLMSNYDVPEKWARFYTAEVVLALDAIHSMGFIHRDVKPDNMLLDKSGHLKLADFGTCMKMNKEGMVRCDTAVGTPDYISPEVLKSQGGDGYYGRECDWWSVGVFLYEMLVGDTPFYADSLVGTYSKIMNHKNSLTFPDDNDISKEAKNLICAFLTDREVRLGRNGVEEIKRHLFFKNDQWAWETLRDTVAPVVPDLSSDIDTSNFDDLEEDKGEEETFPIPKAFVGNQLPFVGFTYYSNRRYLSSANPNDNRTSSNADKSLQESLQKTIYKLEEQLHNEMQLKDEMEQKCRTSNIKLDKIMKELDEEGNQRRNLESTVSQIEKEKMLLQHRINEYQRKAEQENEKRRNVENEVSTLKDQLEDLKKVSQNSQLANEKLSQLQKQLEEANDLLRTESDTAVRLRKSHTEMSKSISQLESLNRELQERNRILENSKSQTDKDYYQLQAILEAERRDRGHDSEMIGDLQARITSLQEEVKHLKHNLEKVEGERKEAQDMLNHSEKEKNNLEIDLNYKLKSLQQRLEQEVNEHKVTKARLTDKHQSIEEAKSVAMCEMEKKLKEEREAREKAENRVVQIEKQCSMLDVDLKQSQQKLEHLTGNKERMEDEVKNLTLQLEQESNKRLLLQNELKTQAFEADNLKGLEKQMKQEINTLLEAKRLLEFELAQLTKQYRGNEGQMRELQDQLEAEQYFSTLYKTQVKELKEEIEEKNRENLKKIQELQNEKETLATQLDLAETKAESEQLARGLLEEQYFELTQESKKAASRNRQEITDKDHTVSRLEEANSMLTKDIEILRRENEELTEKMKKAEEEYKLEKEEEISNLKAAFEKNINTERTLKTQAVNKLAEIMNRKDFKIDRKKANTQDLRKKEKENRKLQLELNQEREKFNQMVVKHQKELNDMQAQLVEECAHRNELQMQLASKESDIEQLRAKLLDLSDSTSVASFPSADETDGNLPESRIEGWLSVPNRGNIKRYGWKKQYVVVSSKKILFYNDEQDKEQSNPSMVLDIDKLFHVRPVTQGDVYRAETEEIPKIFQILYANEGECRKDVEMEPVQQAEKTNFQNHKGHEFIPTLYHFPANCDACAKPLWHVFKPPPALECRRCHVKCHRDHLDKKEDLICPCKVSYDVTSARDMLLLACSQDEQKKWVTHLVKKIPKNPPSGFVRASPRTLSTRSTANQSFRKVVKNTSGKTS

Consider `CCn1nc(-c2ccc(-c3cnc(C)c(C)c3)cc2)nc1Nc1ccc2c(c1)CNC2=O` [Example 42], for which the IC50 on ROCK2 and on ROCK1 was less than 0.3 µM throughout.

Regarding `CCn1nc(-c2ccc(-c3ccc(C)nc3)cc2)nc1Nc1ccc2c(c1C)C(C)NC2=O` (centres unmarked) [Example 43], the values for the IC50 at ROCK2 and at ROCK1 were 3 to 10 µM and greater than 10 µM, respectively.

For the compound `CCn1nc(-c2ccc(-c3ccc(C)cn3)c(C)c2)nc1Nc1ccc2c(c1)CNC2=O` [Example 44], the IC50 at ROCK2 is less than 0.3 µM; on ROCK1, greater than 10 µM.

Take `CCn1nc(-c2ccc(-n3cnc(C4CC4)c3)cc2)nc1Nc1cc2c(cc1C)C(=O)NC2C` (centres unmarked) [Example 45]: the half-inhibitory concentration (IC50) on ROCK2 is less than 0.3 µM; on ROCK1, 3 to 10 µM.

`CCn1nc(-c2ccc(-c3ccc(C)nc3)cc2)nc1Nc1cnc2c(c1)CNC2=O` [Example 46]: the IC50 at ROCK2 is 0.3 to 3 µM; on ROCK1, greater than 10 µM.

For `CCn1nc(-c2ccc(-c3ccc(C4CC4)nc3)cc2)nc1Nc1ccc2c(c1)C(C)NC2=O` (centres unmarked) [Example 47], the values for the IC50 at ROCK2 and at ROCK1 were less than 0.3 µM and 3 to 10 µM, respectively.

Take `CCn1nc(-c2ccc(-c3ccc(C4CC4)nc3)c(C)c2)nc1Nc1cc2c(cc1C)C(=O)NC2C` (centres unmarked) [Example 48]: the half-maximal inhibitory concentration (IC50) was less than 0.3 µM on ROCK2 and 3 to 10 µM on ROCK1.

Take `CCn1nc(-c2ccc(-c3ccc(C4CC4)nc3)c(C)c2)nc1Nc1ccc2c(c1)C1(CC1)NC2=O` [Example 49]: the IC50 at ROCK2 was less than 0.3 µM; on ROCK1, greater than 10 µM.

As for `CCn1nc(-c2ccc(-c3ccc(C4CC4)nc3)cc2C)nc1Nc1ccc2c(c1)C(C)NC2=O` (centres unmarked) [Example 50], the values for the IC50 at ROCK2 and on ROCK1 were less than 0.3 µM and greater than 10 µM, respectively.

In the case of `CCn1nc(-c2ccc(-c3ccc(C)nc3)c(C)c2)nc1Nc1ccc2c(c1)C1(CC1)NC2=O` [Example 51], the IC50 on ROCK2 was less than 0.3 µM; on ROCK1, greater than 10 µM.

On to `CCn1nc(-c2ccc(-c3ccc(C4CC4)cn3)c(C)c2)nc1Nc1ccc2c(c1)CNC2=O` [Example 52], for which the 50% inhibitory concentration (IC50) on ROCK2 is less than 0.3 µM; at ROCK1, greater than 10 µM.

Take `CCn1nc(-c2ccc(-c3ccc(C)cn3)c(C)c2)nc1Nc1ccc2c(c1)C(C)NC2=O` (centres unmarked) [Example 53]: the IC50 at ROCK2 is less than 0.3 µM; on ROCK1, greater than 10 µM.

`CCn1nc(-c2ccc(C3CCNCC3)cc2)nc1Nc1ccc2c(c1)CNC2=O` [Example 54]: the IC50 was 3 to 10 µM on ROCK2 and greater than 10 µM on ROCK1.

With `CCn1nc(-c2ccc(-c3ccc(C4CC4)nc3)cc2)nc1Nc1ccc2c(c1)C1(CC1)NC2=O` [Example 55], the IC50 is less than 0.3 µM at ROCK2 and greater than 10 µM on ROCK1.

Take `CCn1nc(-c2ccc(-c3ccc(C4CC4)nc3)cc2C)nc1Nc1cc2c(cc1C)C(=O)NC2C` (centres unmarked) [Example 56]: the values for the IC50 on ROCK2 and on ROCK1 were less than 0.3 µM and 3 to 10 µM, respectively.

In the case of `CCn1nc(-c2ccc(-c3ccc(C)nc3)c(F)c2)nc1Nc1cc2c(cc1C)C(=O)NC2C` (centres unmarked) [Example 57], the half-inhibitory concentration (IC50) on ROCK2 was less than 0.3 µM; at ROCK1 it was greater than 10 µM.

Regarding `CCn1nc(-c2ccc(-c3cnc(C4CC4)n3C)cc2)nc1Nc1cc2c(cc1C)C(=O)NC2C` (centres unmarked) [Example 58], the IC50 was less than 0.3 µM at ROCK2 and 3 to 10 µM on ROCK1.

As for `CCn1nc(-c2ccc(-n3cnc(C4CC4)c3)c(C)c2)nc1Nc1cc2c(cc1C)C(=O)NC2C` (centres unmarked) [Example 59], the IC50 is less than 0.3 µM on ROCK2 and 3 to 10 µM at ROCK1.

For the compound `CCn1nc(-c2ccc(-c3ccc(C4CC4)nc3)nc2)nc1Nc1ccc2c(c1)C(C)NC2=O` (centres unmarked) [Example 60], the IC50 on ROCK2 is less than 0.3 µM; at ROCK1, greater than 10 µM.

Turning to `CCn1nc(-c2ccc(-c3ccc(C)nc3)cc2)nc1Nc1ccc2c(c1)C(C)NC2=O` (centres unmarked) [Example 61], the values for the IC50 on ROCK2 and on ROCK1 were less than 0.3 µM and 3 to 10 µM, respectively.

Take `CCn1nc(-c2ccc(-c3ccc(C4CC4)nc3)c(F)c2)nc1Nc1cc2c(cc1C)C(=O)NC2C` (centres unmarked) [Example 62]: the concentration for half-maximal inhibition (IC50) is less than 0.3 µM at ROCK2 and greater than 10 µM at ROCK1.

Take `CCn1nc(-c2ccc(-c3ccc(C)nc3)cc2C)nc1Nc1ccc2c(c1)C(C)NC2=O` (centres unmarked) [Example 63]: the IC50 on ROCK2 was less than 0.3 µM; on ROCK1, 3 to 10 µM.

As usually defined, the IC50 is the concentration that inhibits the measured activity by half.
